Results: patent publication EP0412814A2, “Pyridazinones having cardiotonic and beta blocking activity” (GLAXO WELLCOME INC., priority 1989, dated 1991)
Read-outs that look alike come from different tables or passages of the source.

Tests used:
[1] = system: rat aorta; assay: Rat aorta protocol: relaxation of phenylephrine-contracted rat aorta rings (endothelium removed); conditions: percentage of maximal relaxation produced by nitroprusside (1 X 10⁻⁴ M), at the highest dose tested (100 micromolar), read-out: maximal response
Method: Such vasorelaxation appears to be related to inhibition of the phosphodiesterase (PDE) isozyme related to the cardiac sarcoplasmic reticulum. Thus, relaxation of rat aorta can be used as a screen to eliminate compounds which are not PDE inhibitors prior to testing for actual inotropic activity.
Rings of rat aorta (endothelium removed) were prepared for the measurement of isometric force in isolated tissue organ chambers essentially as previously described by T.J. Rimele et al in the Journal of Pharmacol. Exp. Ther. 245:102-111 (1988). The experimental portion of the protocol began with the addition of methylene blue (1 X 10⁻⁵ M) and propranolol (1 X 10⁻⁶ M) to each organ chamber to inhibit basal cGMP accumulation due to soluble guanylate cyclase and beta-adrenoceptors. Phenylephrine (1 X 10⁻⁷ M) was then added and the rings were allowed to obtain a stable contractile response after which time, the test compound was added in a cumulative fashion. The relaxation induced by each concentration of the test compound was expressed as a percentage of the maximal relaxation produced by nitroprusside (1 X 10⁻⁴ M). […] The IC₅₀ (concentration of test compound which produced a relaxation equivalent to 50% of the maximal relaxation induced by nitroprusside) was determined for each tissue. […]

[2] = target: T1, Beta-1 adrenoceptor (Rattus norvegicus, UniProt P18090); assay: Beta adrenoceptor binding assay: [I-125]-Pindolol displacement from rat brain cortical membranes; conditions: IC₅₀ for displacement of [I-125]-Pindolol, 22°C, two hours, read-out: pIC₅₀ (converted)
T1 construct: rat brain cortices were used as the source of membrane vesicles; from tissue; host or cells: rat brain cortex membranes
Method: Because of its receptor density rat brain cortices were used as the source of membrane vesicles to be used in the receptor binding assays. Freshly excised cortexes were homogenized in 20 volumes (w/v) 50 mM TRIS HCl Buffer (pH 7.5), with a glass/Teflon homogenizer following the procedure previously described by T.J. Rimele in J. Pharmacol. Exp. Ther. 239: 1-8, 1986. Beta-1 adrenoceptor binding activity was determined following methods described by M.H. Randall, et al, J. Med. Chem. 20: 1090-1094, 1977, and J. Homberger, et al in Mol. Pharmacol. 20: 453-469, 1981. The incubation mixture consisted of; 26 microliters of 50 mM TRIS/HCl, 10 mM MgCl₂ pH 7.6 buffer, 25 microliters of test drug or 10-6 pindolol to define nonspecific binding, 100 microliters of [I-125]-Pindolol (2200 Ci/mM) at a final concentration of 10-9, and 100 microliters of brain cortical membranes. […] The radioactivity in each filter containing the trapped membrane particles was counted with a gamma counter. […] All specific binding values obtained in the presence of test compounds were expressed as the percentage of specific binding displaced by the individual agents. The resultant values were plotted on a log plot of concentration of test compound vs. percentage of displacement and an IC₅₀ value (drug concentration which produces 50% displacement) determined. […]

[3] = system: barbiturate-anesthetized dogs; assay: Anesthetized dog: inotropic effect (dP/dt) and inhibition of the isoproterenol response; format: in vivo; conditions: for ED50: Canis lupus familiaris, iv, i.v. infusion, cumulative dose
Method: Inotropic effects were evaluated in barbiturate-anesthetized dogs by differentiating left intraventricular pressure. This procedure was carried out essentially as described by M.K. Grizzel et al in the FASEB Journal, Vol. 3, page 1039, abstract 4728 (1989). Purpose breed mongrel dogs (14-20 kg) of either sex were anesthetized with a mixture of sodium pentobarbital (15 mg/kg) and sodium barbital (300 mg/kg) i.v., intubated with a cuffed endotracheal tube and ventilated with a respirator (Harvard Apparatus, model 613, South Natick, MA) with room air (22 rpm,10-12 ml/kg/stroke). A 5F pressure transducer (Millar Instruments, Mikkro-tip Houston, TX) was inserted through the right carotid artery into the left ventricle to monitor intraventricular pressure. The left ventricular pressure signal was differentiated (using a 100 Hz low pass differential amplifier, Gould Inc., Cleveland, OH) to obtain its maximal rate of rise (+dP/dt), and used to trigger a biotach amplifier to record heart rate. Cardiac output was determined via thermodilution with a Spectramed computer (Starcom, Oxnard, CA) and a 5F Swan Ganz catheter which was inserted into the right jugular vein and positioned in the pulmonary artery. The femoral artery was cannulated for monitoring arterial blood pressure with a pressure transducer (Micron model MP15D, Simi Valley, CA). A lead II electrocardiogram was measured using subcutaneous electrodes. […] Rectal temperature was monitored and maintained at 37-38°C with a heating pad (Baxter Health Care model K20, McGaw Park, IL). All variables were recorded using a Gould 3800S physiograph.
Isoproterenol ([…]) was injected i.v. into the cephalic vein at 10 min intervals except for when the test drug infusion was begun. […] Inhibition of the isoproterenol responses on contractility (dP/dt), heart rate and diastolic blood pressure were determined at each dose of test compound. The inotropic effect of each compound was determined by comparing the level of dP/dt at the end of each 10 min period to that of the level of dP/dt just prior to the infusion of test compound. […]

[4] = system: guinea-pigs left atria; assay: Guinea pig left atria test: force of atrial contraction; conditions: Cavia porcellus
Source text: Male Hartley guinea-pigs (300-400 grams) were sacrificed by cervical dislocation or carbon dioxide asphyxiation. The hearts were immediately removed and placed in oxygenated Krebs-Henseleit buffer (composition (millimolar): Na⁺ 143, K⁺ 5.9, Ca⁺⁺ 1.25, Mg⁺⁺ 1.2, Cl⁻ 128, HCO₃⁻ 25, SO₄⁻⁻ 1.2, H₂PO₄⁻ 1.0, and D-glucose 10). Left atria were dissected away from the remainder of the heart and mounted on holders against platinum punctate electrodes. The mounted atria were placed in tissue baths maintained at 31°C and oxygenated with 95% 0₂-5% CO₂ under 1.0 gram resting tension. The atria were stimulated through the punctate electrode and an external platimum electrode at the threshold voltage plus thirty percent, one Hertz frequency and five to ten milliseconds duration. Contractions were detected with a force displacement transducer and recorded on a physiograph. […]
Direct effects of the test compounds on the force of atrial contraction were observed and recorded after addition of the compounds to the tissue bath. […] Responses to the test compounds and forskolin were expressed as a percentage of the maximal response to forskolin. EC₅₀ values for the test compounds were calculated as the concentration of the compound neceesary to produce an inotropic response half that of the maximal response produced by the test compound. […]

T1 sequence (P18090 whole entry): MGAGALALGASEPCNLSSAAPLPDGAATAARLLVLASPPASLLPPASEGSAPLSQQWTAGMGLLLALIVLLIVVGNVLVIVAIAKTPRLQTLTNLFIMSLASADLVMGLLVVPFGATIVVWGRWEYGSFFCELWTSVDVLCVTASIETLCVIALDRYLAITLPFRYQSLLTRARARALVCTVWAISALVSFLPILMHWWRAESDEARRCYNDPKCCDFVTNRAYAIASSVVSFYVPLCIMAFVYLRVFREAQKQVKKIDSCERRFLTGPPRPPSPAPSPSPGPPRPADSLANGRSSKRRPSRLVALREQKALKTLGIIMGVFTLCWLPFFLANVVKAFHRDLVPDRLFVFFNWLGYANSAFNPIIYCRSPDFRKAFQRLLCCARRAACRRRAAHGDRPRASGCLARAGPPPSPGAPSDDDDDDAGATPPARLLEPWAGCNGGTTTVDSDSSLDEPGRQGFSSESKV

IC50 [2]: 0.0269 µM
EC50 ([4]; concentration producing an inotropic response half that of the maximal response produced by the test compound, read-out: ED₅₀): 9 µM
Compound: O=C(COc1ccc(C2=NNC(=O)CC2)cc1Cl)NCCNC[C@H](O)COc1ccccc1 [Example 19, 6-{4-[N-[2-[3-phenoxy-2-hydroxypropylamino]ethyl]carbamoylmethoxy]-3-chlorophenyl}-4,5-dihydro-3(2H)-pyridazinone]
Emax at 100 µM [1]: 100%
ED50 ([3]; 50% increase in dP/dt compared to a baseline established prior to drug infusion, read-out: inotropic ED₅₀): 0.114 µmol/kg
ED50 ([3]; 50% inhibition of the dP/dt response to isoproterenol, read-out: ED₅₀ for inhibition of the isoproterenol response): 0.469 µmol/kg
inotropic effects with atenolol ([3]; whether the inotropic effects are blocked by atenolol): not blocked by atenolol
Emax at 100 µM ([4]; percentage of the maximal response to forskolin, at 100 micromolar, propranolol and phentolamine (1.0 micromolar) present): 83%
